Test results published in patent US20240294499A1, “TARGETED PROTEIN DEGRADATION USING BIFUNCTIONAL COMPOUNDS THAT BIND UBIQUITIN LIGASE AND TARGET MCL-1 PROTEIN” (Captor Therapeutics S.A., priority 2021, published 2024).

Legend:
[1] = tested on: ARH-77 cells; test: Cell viability assay (CellTiter-Glo), ARH-77; assay type: cell-based; details: Homo sapiens, ARH-77, 24 hours incubation, 1% FBS, read-out: Average pIC50 by molecule ARH-77 (converted)
Method in brief: (§1)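 Luminescent ATP readout (CellTiter-Glo) at 24 hours measured viability, expressed relative to DMSO-treated wells. Compound was added directly to the medium as a 9–12-point threefold series starting at 30 uM, at 0.5% final DMSO. The medium contained FBS reduced to 1%.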

[2] = target: [MCL-1]-[compound of formula (I)]-[CRBN/DDB1] complex (Homo sapiens, UniProt Q07820+Q96SW2); test: HTRF ternary complex assay; assay type: binding; details: ternary complex formation; read-out: HTRF ternary complex Average pEC50 by molecule (converted)
Protocol: The effect of the bifunctional compounds of the invention on the formation of a ternary complex composed of [MCL-1]-[compound of formula (I)]-[CRBN/DDB1] was investigated.
Mix of protein solution were prepared: • 48 nM hMcl-1 and 105.6 nM CRBN was prepared in PPI Europium detection buffer with 2 mM DTT. • Acceptor and donor stock solutions were diluted 100 times in PPI Europium detection buffer. Equal volumes of both reagents were mixed. Finally giving 3 nM of Streptavidin-Eu cryptate […] and 6.67 nM of Anti-6× his-d2 […].
5 μl of protein mix was dispensed to all wells. The tested compounds in dose-response were dispensed onto a white 384-well low volume plate (Greiner, 784075). DMSO was backfilled to all wells, resulting in a final DMSO content of 0.5%. Wells containing only DMSO served as background. Next, 5 μl of solution with donor and acceptor was added to the wells.
The plate was sealed with transparent film and shaken using a VibroTurbulator for 60 see at level 3. The plate was then spun down shortly (10 s, 1000 rcf) and incubated at 25° C. for 180 min.
The read-out was performed with plate reader (Pherastar, BMG Labtech) in time resolved fluorescence mode. Filterset: TR 337 665 620.
The results were analyzed as follows: • 1) an average of fluorescence for background signal was calculated and used as a negative control; • 2) raw fluorescence values for tested compounds were normalized against negative controls; • 3) bell shape curve was fitted to a gaussian distribution using a non-linear least squares Gauss-Newton algorithm; • 4) EC50 and pEC50 values were determined.

[3] = tested on: MV-4-11 cells; test: Cell viability assay (CellTiter-Glo), MV-4-11; assay type: cell-based; details: Homo sapiens, MV4-11, 24 hours incubation, 1% FBS, read-out: Average pIC50 by molecule MV-4-11 (converted)
Method in brief: as §1

Sequence of [MCL-1]-[compound of formula (I)]-[CRBN/DDB1] complex (Q07820 whole entry): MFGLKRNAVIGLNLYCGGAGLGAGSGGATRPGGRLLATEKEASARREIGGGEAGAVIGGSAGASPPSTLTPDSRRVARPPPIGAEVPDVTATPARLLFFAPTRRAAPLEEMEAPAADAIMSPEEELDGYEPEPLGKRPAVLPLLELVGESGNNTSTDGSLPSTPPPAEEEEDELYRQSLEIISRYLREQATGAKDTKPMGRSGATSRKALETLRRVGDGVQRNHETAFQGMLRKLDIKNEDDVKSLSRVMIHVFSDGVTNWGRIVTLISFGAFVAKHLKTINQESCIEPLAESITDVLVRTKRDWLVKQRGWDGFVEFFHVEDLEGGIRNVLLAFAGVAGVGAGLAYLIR
Sequence of [MCL-1]-[compound of formula (I)]-[CRBN/DDB1] complex (Q96SW2 whole entry): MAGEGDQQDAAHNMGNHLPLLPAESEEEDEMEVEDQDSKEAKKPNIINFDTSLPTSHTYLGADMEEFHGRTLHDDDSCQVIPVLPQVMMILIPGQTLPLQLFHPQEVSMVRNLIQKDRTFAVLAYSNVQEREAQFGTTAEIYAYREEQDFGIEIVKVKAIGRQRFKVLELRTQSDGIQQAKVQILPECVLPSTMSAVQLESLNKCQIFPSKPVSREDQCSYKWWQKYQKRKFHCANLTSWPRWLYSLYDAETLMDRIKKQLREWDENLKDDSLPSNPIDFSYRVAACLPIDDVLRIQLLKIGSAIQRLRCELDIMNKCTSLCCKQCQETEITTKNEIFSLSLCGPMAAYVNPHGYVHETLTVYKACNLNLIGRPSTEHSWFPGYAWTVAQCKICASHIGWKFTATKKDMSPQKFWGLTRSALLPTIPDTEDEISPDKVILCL
Sequence of [MCL-1]-[compound of formula (I)]-[CRBN/DDB1] complex (Q16531 whole entry partner): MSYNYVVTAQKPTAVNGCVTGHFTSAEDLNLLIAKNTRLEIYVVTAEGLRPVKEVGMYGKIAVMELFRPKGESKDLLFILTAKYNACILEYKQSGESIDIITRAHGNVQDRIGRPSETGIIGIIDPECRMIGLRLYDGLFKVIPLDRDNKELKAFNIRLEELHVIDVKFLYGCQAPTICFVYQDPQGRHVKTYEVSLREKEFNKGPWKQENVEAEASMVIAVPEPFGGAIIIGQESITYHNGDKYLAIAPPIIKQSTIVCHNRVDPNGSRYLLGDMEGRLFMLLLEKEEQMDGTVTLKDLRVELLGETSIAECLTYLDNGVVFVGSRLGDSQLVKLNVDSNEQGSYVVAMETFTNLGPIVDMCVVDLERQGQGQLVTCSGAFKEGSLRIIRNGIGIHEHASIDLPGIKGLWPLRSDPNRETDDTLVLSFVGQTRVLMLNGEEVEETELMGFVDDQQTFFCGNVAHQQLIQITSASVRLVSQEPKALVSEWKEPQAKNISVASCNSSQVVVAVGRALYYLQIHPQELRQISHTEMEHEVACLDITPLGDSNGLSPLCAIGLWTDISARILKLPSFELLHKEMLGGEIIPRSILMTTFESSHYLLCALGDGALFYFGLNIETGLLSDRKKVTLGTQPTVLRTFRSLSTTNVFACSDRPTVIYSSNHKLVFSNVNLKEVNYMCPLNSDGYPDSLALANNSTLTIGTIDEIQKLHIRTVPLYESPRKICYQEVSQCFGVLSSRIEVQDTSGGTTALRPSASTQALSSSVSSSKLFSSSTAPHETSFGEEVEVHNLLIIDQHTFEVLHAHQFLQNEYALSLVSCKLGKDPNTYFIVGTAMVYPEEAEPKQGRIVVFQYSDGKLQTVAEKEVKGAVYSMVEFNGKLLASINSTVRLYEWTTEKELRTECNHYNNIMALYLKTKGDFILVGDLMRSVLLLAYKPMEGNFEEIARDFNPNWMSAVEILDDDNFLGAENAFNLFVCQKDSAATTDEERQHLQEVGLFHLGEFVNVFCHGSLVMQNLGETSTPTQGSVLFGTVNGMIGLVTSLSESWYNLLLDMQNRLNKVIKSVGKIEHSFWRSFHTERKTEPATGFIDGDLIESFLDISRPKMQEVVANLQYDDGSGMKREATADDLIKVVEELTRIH

Compound	IC50 [1]	EC50 [2]	IC50 [3]
Cc1nn(C)c(C)c1-c1c(Cl)ccc2c(CCCOc3cccc4cc(F)ccc34)c(C(=O)O)n(CCN3CC(N4CCN(c5cc6c(cc5F)C(=O)N(C5CCC(=O)NC5=O)C6=O)CC4)C3)c12 (stereo not drawn) [Compound 337, 6-Chloro-1-(2-(3-(4-(2-(2,6-dioxopiperidin-3-yl)-6-fluoro-1,3-dioxoisoindolin-5-yl)piperazin-1-yl)azetidin-1-yl)ethyl)-3-(3-((6-fluoronaphthalen-1-yl)oxy)propyl)-7-(1,3,5-trimethyl-1H-pyrazol-4-yl)-1H-indole-2-carboxylic acid]	> 10 µM	< 0.01 µM	≤ 0.316 µM
Cc1nc2cc(C(=O)N3CCN(CCn4c(C(=O)O)c(CCCOc5cccc6cc(F)ccc56)c5ccc(Cl)c(-c6c(C)nn(C)c6C)c54)CC3)ccc2cc1C1CCC(=O)NC1=O (stereo not drawn) [Compound 291, 6-Chloro-1-(2-{4-[3-(2,6-dioxopiperidin-3-yl)-2-methylquinoline-7-carbonyl]piperazin-1-yl}ethyl)-3-{3-[(6-fluoronaphthalen-1-yl)oxy]propyl}-7-(1,3,5-trimethyl-1H-pyrazol-4-yl)-1H-indole-2-carboxylic acid]		< 0.1 µM	
Cc1nn(C)c(C)c1-c1c(Cl)ccc2c(CCCOc3cccc4cc(F)ccc34)c(C(=O)O)n(CCN3CCC(C(=O)N4CCN(c5cc6c(cc5F)C(=O)N(C5CCC(=O)NC5=O)C6=O)CC4)CC3)c12 (stereo not drawn) [Compound 333, 6-Chloro-1-[2-(4-{4-[2-(2,6-dioxopiperidin-3-yl)-6-fluoro-1,3-dioxo-2,3-dihydro-1H-isoindol-5-yl]piperazine-1-carbonyl}piperidin-1-yl)ethyl]-3-{3-[(6-fluoronaphthalen-1-yl)oxy]propyl}-7-(1,3,5-trimethyl-1H-pyrazol-4-yl)-1H-indole-2-carboxylic acid]		< 0.01 µM	≤ 1 µM
Cc1nn(C)c(C)c1-c1c(Cl)ccc2c(CCCOc3cccc4cc(F)ccc34)c(C(=O)O)n(CCN3CC4(C3)CN(C(=O)COc3cccc5c3CN(C3CCC(=O)NC3=O)C5=O)C4)c12 (stereo not drawn) [Compound 303]		< 0.1 µM	
Cc1nn(C)c(C)c1-c1c(Cl)ccc2c(CCCOc3cccc4cc(F)ccc34)c(C(=O)O)n(CCN3CC4(CCCN(C(=O)COc5cccc6c5CN(C5CCC(=O)NC5=O)C6=O)C4)C3)c12 (stereo not drawn) [Compound 304, 6-Chloro-1-(2-(6-(2-((2-(2,6-dioxopiperidin-3-yl)-1-oxoisoindolin-4-yl)oxy)acetyl)-2,6-diazaspiro[3.5]nonan-2-yl)ethyl)-3-(3-((6-fluoronaphthalen-1-yl)oxy)propyl)-7-(1,3,5-trimethyl-1H-pyrazol-4-yl)-1H-indole-2-carboxylic acid]		< 0.1 µM	
Cc1noc(C)c1-c1c(Cl)ccc2c(CCCOc3cccc4cc(F)ccc34)c(C(=O)O)n(CCN3CCN(C(=O)COc4cccc5c4CN(C4CCC(=O)NC4=O)C5=O)CC3)c12 (stereo not drawn) [Compound 347, 6-Chloro-7-(3,5-dimethylisoxazol-4-yl)-1-(2-(4-(2-((2-(2,6-dioxopiperidin-3-yl)-1-oxoisoindolin-4-yl)oxy)acetyl)piperazin-1-yl)ethyl)-3-(3-((6-fluoronaphthalen-1-yl)oxy)propyl)-1H-indole-2-carboxylic acid]		< 0.1 µM	
O=C1CCC(N2Cc3c(OCC(=O)N4CCN(CCn5c(C(=O)O)c(CCCOc6cccc7cc(F)ccc67)c6ccc(Cl)c(-c7cnn8cccnc78)c65)CC4)cccc3C2=O)C(=O)N1 (stereo not drawn) [Compound 348, 6-Chloro-1-(2-(4-(2-((2-(2,6-dioxopiperidin-3-yl)-1-oxoisoindolin-4-yl)oxy)acetyl)piperazin-1-yl)ethyl)-3-(3-((6-fluoronaphthalen-1-yl)oxy)propyl)-7-(pyrazolo[1,5-a]pyrimidin-3-yl)-1H-indole-2-carboxylic acid]	> 10 µM	< 0.1 µM	≤ 0.316 µM
Cc1nn(C)c(C)c1-c1c(Cl)ccc2c(CCCOc3cccc4cc(F)ccc34)c(C(=O)O)n(CCN3CCC(N4CCN(c5cc6c(cc5F)C(=O)N(C5CCC(=O)NC5=O)C6=O)CC4)CC3)c12 (stereo not drawn) [Compound 336, 6-Chloro-1-[2-(4-{4-[2-(2,6-dioxopiperidin-3-yl)-6-fluoro-1,3-dioxo-2,3-dihydro-1H-isoindol-5-yl]piperazin-1-yl}piperidin-1-yl)ethyl]-3-{3-[(6-fluoronaphthalen-1-yl)oxy]propyl}-7-(1,3,5-trimethyl-1H-pyrazol-4-yl)-1H-indole-2-carboxylic acid]	> 10 µM	< 0.01 µM	≤ 0.1 µM
Cc1nn(C)c(C)c1-c1c(Cl)ccc2c(CCCOc3cccc4cc(F)ccc34)c(C(=O)O)n(CCN3CCN(CC4CN(c5cc6c(cc5F)C(=O)N(C5CCC(=O)NC5=O)C6=O)C4)CC3)c12 (stereo not drawn) [Compound 334, 6-Chloro-1-(2-(4-((1-(2-(2,6-dioxopiperidin-3-yl)-6-fluoro-1,3-dioxoisoindolin-5-yl)azetidin-3-yl)methyl)piperazin-1-yl)ethyl)-3-(3-((6-fluoronaphthalen-1-yl)oxy)propyl)-7-(1,3,5-trimethyl-1H-pyrazol-4-yl)-1H-indole-2-carboxylic acid]	> 3.16 µM	< 0.01 µM	≤ 0.1 µM
Cc1nn(C)c(C)c1-c1c(Cl)ccc2c(CCCOc3cccc4cc(F)ccc34)c(C(=O)O)n(CCN3CCN(C(=O)C(C)(C)Oc4cccc5c4CN(C4CCC(=O)NC4=O)C5=O)CC3)c12 (stereo not drawn) [Compound 311, 6-Chloro-1-{2-[4-(2-{[2-(2,6-dioxopiperidin-3-yl)-1-oxo-2,3-dihydro-1H-isoindol-4-yl]oxy}-2-methylpropanoyl)piperazin-1-yl]ethyl}-3-{3-[(6-fluoronaphthalen-1-yl)oxy]propyl}-7-(1,3,5-trimethyl-1H-pyrazol-4-yl)-1H-indole-2-carboxylic acid]		< 0.1 µM	
Cc1nn(C)c(C)c1-c1c(Cl)ccc2c(CCCOc3cccc4cc(F)ccc34)c(C(=O)O)n(CCN3CC4(CCN(C(=O)COc5cccc6c5CN(C5CCC(=O)NC5=O)C6=O)C4)C3)c12 (stereo not drawn) [Compound 305, 6-Chloro-1-(2-(6-(2-((2-(2,6-dioxopiperidin-3-yl)-1-oxoisoindolin-4-yl)oxy)acetyl)-2,6-diazaspiro[3.4]octan-2-yl)ethyl)-3-(3-((6-fluoronaphthalen-1-yl)oxy)propyl)-7-(1,3,5-trimethyl-1H-pyrazol-4-yl)-1H-indole-2-carboxylic acid]		< 0.1 µM	
Cc1cc(OCCCc2c(C(=O)NS(=O)(=O)CCNC(=O)CCOCCOCCNc3cccc4c3C(=O)N(C3CCC(=O)NC3=O)C4=O)n(C)c3c(-c4c(C)nn(C)c4C)c(Cl)ccc23)cc(C)c1Cl (stereo not drawn) [Compound 252, 6-chloro-3-(3-(4-chloro-3,5-dimethylphenoxy)propyl)-N-((2-(3-(2-(2-((2-(2,6-dioxopiperidin-3-yl)-1,3-dioxoisoindolin-4-yl)amino)ethoxy)ethoxy)propanamido)ethyl)sulfonyl)-1-methyl-7-(1,3,5-trimethyl-1H-pyrazol-4-yl)-1H-indole-2-carboxamide]		< 0.1 µM	
Cc1nc2ccc(C(=O)N3CCN(CCn4c(C(=O)O)c(CCCOc5cccc6cc(F)ccc56)c5ccc(Cl)c(-c6c(C)nn(C)c6C)c54)CC3)cc2cc1C1CCC(=O)NC1=O (stereo not drawn) [Compound 290, 6-Chloro-1-(2-(4-(3-(2,6-dioxopiperidin-3-yl)-2-methylquinoline-6-carbonyl)piperazin-1-yl)ethyl)-3-(3-((6-fluoronaphthalen-1-yl)oxy)propyl)-7-(1,3,5-trimethyl-1H-pyrazol-4-yl)-1H-indole-2-carboxylic acid]		< 0.01 µM	
Cc1nc2cc(OCC(=O)N3CCN(CCn4c(C(=O)O)c(CCCOc5cccc6cc(F)ccc56)c5ccc(Cl)c(-c6c(C)nn(C)c6C)c54)CC3)ccc2cc1C1CCC(=O)NC1=O (stereo not drawn) [Compound 288, 6-Chloro-1-(2-(4-(2-((3-(2,6-dioxopiperidin-3-yl)-2-methylquinolin-7-yl)oxy)acetyl)piperazin-1-yl)ethyl)-3-(3-((6-fluoronaphthalen-1-yl)oxy)propyl)-7-(1,3,5-trimethyl-1H-pyrazol-4-yl)-1H-indole-2-carboxylic acid]		< 0.1 µM	
Cc1nn(C)c(C)c1-c1c(Cl)ccc2c(CCCOc3cccc4cc(F)ccc34)c(C(=O)O)n(CCN3CCN(C(=O)CSc4cccc5c4CN(C4CCC(=O)NC4=O)C5=O)CC3)c12 (stereo not drawn) [Compound 322, 6-Chloro-1-(2-(4-(2-((2-(2,6-dioxopiperidin-3-yl)-1-oxoisoindolin-4-yl)thio)acetyl)piperazin-1-yl)ethyl)-3-(3-((6-fluoronaphthalen-1-yl)oxy)propyl)-7-(1,3,5-trimethyl-1H-pyrazol-4-yl)-1H-indole-2-carboxylic acid]		< 0.1 µM	
